Consider nine compounds from PMC6930570, “2-Arylidene-1-indandiones as Pleiotropic Agents with Antioxidant and Inhibitory Enzymes Activities” (Molecules, 2019).

Test [1] has as its target T1, soybean lipoxygenase (Glycine max, UniProt P08170).
T1 construct: purchased Sigma Chemical, Co. (St. Louis)
T1 sequence (P08170 1-839): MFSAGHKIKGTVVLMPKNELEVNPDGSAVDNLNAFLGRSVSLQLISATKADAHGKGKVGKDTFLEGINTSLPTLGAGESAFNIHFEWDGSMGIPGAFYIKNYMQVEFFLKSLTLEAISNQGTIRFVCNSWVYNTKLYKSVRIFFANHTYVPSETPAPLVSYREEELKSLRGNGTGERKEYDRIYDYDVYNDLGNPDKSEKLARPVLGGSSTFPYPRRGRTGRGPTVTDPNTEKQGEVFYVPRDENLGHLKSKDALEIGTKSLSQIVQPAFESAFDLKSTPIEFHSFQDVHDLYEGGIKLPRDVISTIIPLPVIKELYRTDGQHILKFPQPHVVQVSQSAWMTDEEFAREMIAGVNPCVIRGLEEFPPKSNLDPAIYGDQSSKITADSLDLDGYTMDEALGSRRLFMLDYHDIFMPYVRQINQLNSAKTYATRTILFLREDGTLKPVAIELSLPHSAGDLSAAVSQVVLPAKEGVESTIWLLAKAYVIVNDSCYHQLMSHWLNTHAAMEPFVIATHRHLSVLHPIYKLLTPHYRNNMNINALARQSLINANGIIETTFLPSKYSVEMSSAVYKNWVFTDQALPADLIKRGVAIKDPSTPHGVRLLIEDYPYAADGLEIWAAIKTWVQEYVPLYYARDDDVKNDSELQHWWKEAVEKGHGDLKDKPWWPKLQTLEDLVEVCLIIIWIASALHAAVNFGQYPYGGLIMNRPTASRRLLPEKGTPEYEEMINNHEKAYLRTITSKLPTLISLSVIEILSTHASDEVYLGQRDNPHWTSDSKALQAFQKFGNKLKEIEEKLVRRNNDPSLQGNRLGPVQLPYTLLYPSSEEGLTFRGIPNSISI
The test can be described thus: Soybean lipoxygenase inhibition in vitro. The format is biochemical. The following applies: sodium linoleate substrate, no = no action under the experimental conditions; for inhibition at 100 µM: read-out: LOX (% Inhibition 100 µM). On the procedure:
Thus, we used soybean LOX in our in vitro experiments.
In vitro study was performed as reported previously by our group. Sodium linoleate (0.1 mM) and 0.2 mL of enzyme solution (1/9 × 104 w/v in saline) were used for the incubation of the tested derivatives.

The subject of test [2] is carrageenin-induced rat paw edema. The test can be described thus: Inhibition of the carrageenin-induced rat paw edema (CPE). The format is in vivo, Fisher 344 rats. To be noted: 0.01 mmol/kg body weight, intraperitoneally, 3.5 h after carrageenin; for inhibition in vivo at 10 µmol/kg: Rattus norvegicus, ip, read-out: CPE % (reduction of the rat paw edema). From the text: Carrageenin-induced rat paw edema (CPE) model was used to study the in vivo anti-inflammatory activity of the tested derivatives and the results are presented in Table 3. […] Compounds 2, 7, 8, 10, and 12 presented small differences in their biological activity. The presence of the thienyl group as well as of the furyl leads to higher anti-inflammatory activity (1 and 3) while substitution with a phenyl group leads to two-fold decrease of the activity (28%).
Edema was induced in the right hind paw of Fisher 344 rats (150–200 g) by the intradermal injection of 0.1 mL 2% carrageenin in water. Both sexes were used while females pregnant were excluded. Each group was composed of 6–15 animals. The animals, which have been bred in our laboratory, were housed under standard conditions and received a diet of commercial food pellets and water ad libitum during the maintenance but they were entirely fasted during the experiment period. Our studies were in accordance with recognised guidelines on animal experimentation. (guidelines for the care and use of laboratory animals published by the Greek Government 160/1991, based on EU regulations 86/609). Rats were kept in the Centre of the School of Veterinary Medicine (EL54 BIO42), Aristotle University of Thessaloniki, which is registered by the official state veterinary authorities (presidential degree 56/2013, in harmonization with the European Directive 2010/63/EEC). The experimental protocols were approved by the Animal Ethics Committee of the Prefecture of Central Macedonia (no. 270079/2500). The tested compounds 0.01 mmol/kg body weight were suspended in water, with a few drops of Tween 80 and ground in a mortar before use and were given intraperitoneally simultaneously with the carrageenin injection. The rats were euthanized 3.5 h after carrageenin injection. The difference between the weight of the injected and uninjected paws was calculated for each animal. The change in paw weight was compared with that in control animals (treated with water) and expressed as a percent inhibition of the edema CPE % values […] [58, 59]. Indomethacin in 0.01 mmol/kg (47%). Values CPE % are the mean from two different experiments with a standard error of the mean less than 10% (Table 3).

Test [3] is described as follows: Superoxide anion radical scavenging activity (PMS/NADPH/NBT). The test is classed as biochemical. The following applies: 100 μM (stated for compound 3). As to the method: The compounds have been tested to scavenge superoxide anion radicals. However, no results were recorded under the experimental conditions.
The superoxide anion producing system was set up by mixing PMS, NADPH, and air oxygen. The production of superoxide anion was estimated by the nitrobluetetrazole NBT method. The reaction mixture containing compounds, 3 μM PMS, 78 μM NADPH, and 25 μM NBT in […] phosphate buffer pH 7.4 was incubated for 2 min at room temperature and the absorption was measured at 560 nm against a blank containing PMS. The tested compounds were pre-incubated for 2 min before adding NADPH. Caffeic acid was used as an appropriate standard (76%).

For orientation: inhibition means the share of the control response that was lost under treatment.

`CN(C)c1ccc(/C=C\C=C2C(=O)c3ccccc3C2=O)cc1` [Compound 6, (Z)-2-(3-(4-(dimethylamino)phenyl)allylidene)-1H-indene-1,3(2H)-dione]: in test [1], the inhibition at 100 µM came out at 17.7%.

On to `O=C1C(=Cc2ccc(OCc3ccc(Br)cc3)cc2)C(=O)c2ccccc21` [Compound 8, (Z)-2-(4-((4-bromobenzyl)oxy)benzylidene)-1H-indene-1,3(2H)-dione], for which, in test [2], the “CPE % (reduction of the rat paw edema)” value was 46% and the inhibition in vivo at 10 µmol/kg was 46%. In addition, in test [1], the inhibition at 100 µM worked out at 3.6%.

Regarding `Cc1ccc(C=C2C(=O)c3ccccc3C2=O)o1` [Compound 3, (Z)-2-((5-methylfuran-2-yl)methylene)-1H-indene-1,3(2H)-dione], in test [3], the “superoxide anion scavenging activity” value worked out at 20%. For the same compound, in test [2], the inhibition in vivo at 10 µmol/kg was found to be 50%. For the same compound, the inhibition at 100 µM in test [1] stood at 35.7%.

As for `O=C1C(=Cc2c[nH]c3ccccc23)C(=O)c2ccccc21` [Compound 12, (Z)-2-((1H-indol-3-yl)methylene)-1H-indene-1,3(2H)-dione], the inhibition in vivo at 10 µmol/kg in test [2] came out at 42%. In addition, the inhibition at 100 µM in test [1] was found to be 58.9%.

As for `CC(C)(C)c1cc(C=C2C(=O)c3ccccc3C2=O)c(O)c(C(C)(C)C)c1` [Compound 9, (Z)-2-(3,5-di-tert-butyl-2-hydroxybenzylidene)-1H-indene-1,3(2H)-dione], in test [1], the “LOX (% Inhibition 100 µM)” value was “no”.

On to `CC(C)(C)c1cc(C=C2C(=O)c3ccccc3C2=O)cc(C(C)(C)C)c1O` [Compound 10, (Z)-2-(3,5-di-tert-butyl-4-hydroxybenzylidene)-1H-indene-1,3(2H)-dione], for which the inhibition in vivo at 10 µmol/kg in test [2] stood at 42%. For the same compound, the “LOX (% Inhibition 100 µM)” value in test [1] is “no”.

Consider `O=C1C(=Cc2ccccc2)C(=O)c2ccccc21` [Compound 4, 2-benzylidene-1H-indene-1,3(2H)-dione], for which the inhibition in vivo at 10 µmol/kg in test [2] is 28%. In test [1], the inhibition at 100 µM was found to be 35%.

As to `O=C1C(=Cc2cccc(Oc3ccccc3)c2)C(=O)c2ccccc21` [Compound 7, (Z)-2-(3-phenoxybenzylidene)-1H-indene-1,3(2H)-dione], in test [2], the “CPE % (reduction of the rat paw edema)” value is given as 41% and the inhibition in vivo at 10 µmol/kg turned out to be 41%. In addition, the inhibition at 100 µM in test [1] worked out at 67.3%.

In the case of `Cc1ccsc1C=C1C(=O)c2ccccc2C1=O` [Compound 2, (Z)-2-((3-methylthiophen-2-yl)methylene)-1H-indene-1,3(2H)-dione], the inhibition in vivo at 10 µmol/kg in test [2] stood at 45%. Also, the inhibition at 100 µM in test [1] was 45%.
